Earlier results in US20040101478A1, “In vivo methods of determining activity of receptor-type kinase inhibitors” (priority 2003, published 2004).

Target: KDR kinase (Homo sapiens, UniProt P35968)
Conditions: Kasahara et al., 2000, J. Clin. Invest. 106: 1311-1319; cited from earlier work

KDR kinase, sequence (P35968 20-1356): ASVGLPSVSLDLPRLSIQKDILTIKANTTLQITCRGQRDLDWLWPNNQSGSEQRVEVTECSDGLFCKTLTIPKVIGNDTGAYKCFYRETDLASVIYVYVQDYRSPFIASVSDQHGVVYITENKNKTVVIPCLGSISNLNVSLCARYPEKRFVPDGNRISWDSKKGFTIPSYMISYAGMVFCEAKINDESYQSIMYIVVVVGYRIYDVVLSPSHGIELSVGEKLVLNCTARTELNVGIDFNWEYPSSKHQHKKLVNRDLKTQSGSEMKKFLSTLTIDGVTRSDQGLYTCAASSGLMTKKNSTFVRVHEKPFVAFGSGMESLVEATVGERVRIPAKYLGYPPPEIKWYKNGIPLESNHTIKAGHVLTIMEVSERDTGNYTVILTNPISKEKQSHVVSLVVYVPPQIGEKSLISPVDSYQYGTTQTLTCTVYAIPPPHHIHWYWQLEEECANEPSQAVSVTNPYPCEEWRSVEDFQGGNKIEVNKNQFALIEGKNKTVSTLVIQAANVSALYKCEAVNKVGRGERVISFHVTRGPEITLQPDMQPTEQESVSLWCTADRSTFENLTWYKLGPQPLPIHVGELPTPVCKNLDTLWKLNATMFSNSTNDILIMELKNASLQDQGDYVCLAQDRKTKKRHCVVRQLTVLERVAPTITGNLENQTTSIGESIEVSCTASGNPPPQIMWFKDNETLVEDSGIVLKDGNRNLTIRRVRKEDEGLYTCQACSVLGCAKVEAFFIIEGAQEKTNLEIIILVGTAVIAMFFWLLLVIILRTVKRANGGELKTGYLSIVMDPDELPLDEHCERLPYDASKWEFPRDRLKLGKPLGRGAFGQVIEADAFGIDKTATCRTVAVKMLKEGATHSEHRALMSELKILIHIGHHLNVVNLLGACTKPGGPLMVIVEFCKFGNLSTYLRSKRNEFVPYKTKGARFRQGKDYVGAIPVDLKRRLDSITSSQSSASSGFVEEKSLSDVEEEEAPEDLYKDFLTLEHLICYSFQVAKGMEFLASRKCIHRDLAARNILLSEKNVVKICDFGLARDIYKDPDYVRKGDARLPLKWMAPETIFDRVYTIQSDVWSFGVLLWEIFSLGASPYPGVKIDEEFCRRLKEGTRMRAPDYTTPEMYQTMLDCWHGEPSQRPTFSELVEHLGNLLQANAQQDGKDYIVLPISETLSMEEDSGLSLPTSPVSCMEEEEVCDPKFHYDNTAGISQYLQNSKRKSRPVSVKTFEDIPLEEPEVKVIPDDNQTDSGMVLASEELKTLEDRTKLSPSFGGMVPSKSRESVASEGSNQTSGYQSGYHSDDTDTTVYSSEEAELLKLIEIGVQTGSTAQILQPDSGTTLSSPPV

Compound: Cc1cc(C)c(/C=C2\C(=O)Nc3ccccc32)[nH]1 [SU5416]
- inhibition of VEGF-induced phosphorylation: inhibition of VEGF-induced phosphorylation
